Source: patent publication US7893196B2, “Polypeptides having antimicrobial activity and polynucleotides encoding same” (Novozymes Aderium Biotech A/S, priority 2004, dated 2011)

Legend:
Assay type in all cases: cell-based
B. subtilis ATCC 6633 = assay: Radial diffusion assay; details: up-concentrated S. cerevisiae supernatants
Procedure: (§1) The supernatants described above in Example 10 were analyzed in a radial diffusion assay following a previously published protocol for detection of antimicrobial activity (Lehrer et al. (1991), Ultra sensitive assays for endogenous antimicrobial polypeptides, J Immunol Methods 137: 167-173). Target bacteria (10^6 colony forming units (CFU)) were added to 10 ml of underlay agarose (1% low electro-endosmosis agarose, 0.03% Trypticase soy broth, 10 mM sodium phosphate, pH 7.4, 37 degrees Celsius). Suspension was solidified on an INTEGRID Petri Dish (Becton Dickinson Labware, NJ). A 3 mm Gel Puncher was used to make holes in the underlay agarose (Amersham Pharmacia Biotech, Sweden). Samples were added to the holes and incubated at 37 degrees Celsius, 3 hours. An overlay was poured on top and the plate was incubated overnight (LB media, 7.5% Agar). Antimicrobial activity was seen as bacterial clearing zones around the wells. Living cells was counterstained by adding 10 ml, 0.2 mM MTT (3-(4,5-Dimethylthiazol-2-yl)-2,5-diphenyltetrazolium bromide Thiazolyl blue). All standard protocols has been described elsewhere (Sambrook, Fritsch, and Maniatis, 1989).
(§2) The results in Table 2 show zones of inhibition of up-concentrated samples against three ATCC strains.

M. luteus ATCC 9341 = assay: Radial diffusion assay; details: up-concentrated S. cerevisiae supernatants
Procedure: as §1, §2

S. carnosus ATCC 51365 = assay: Radial diffusion assay; details: up-concentrated S. cerevisiae supernatants
Procedure: as §1, §2

[1] = system: Staphylococcus aureus, ATCC 29213 (MSSA); assay: MIC microdilution assay (NCCLS/CLSI); details: tested 0.06-32 μg/ml
Procedure: (§3) Purified Oystrisin and Piceasin were evaluated for antimicrobial activity in a microdillution assay. The Minimal Inhibitory Concentration (MIC) was determined following the NCCLS/CLSI guidelines from CLSI (Clinical and Laboratory Standards Institute).
(§4) Oystrisin and Piceasin were tested at the following concentrations: 32; 16; 8; 4; 2; 1; 0.50; 0.25; 0.13; and 0.06 μg/ml.

[2] = system: Staphylococcus aureus, ATCC 43300 (MRSA); assay: MIC microdilution assay (NCCLS/CLSI); details: tested 0.06-32 μg/ml
Procedure: as §3, §4

[3] = system: Staphylococcus carnosus, ATCC 51365; assay: MIC microdilution assay (NCCLS/CLSI); details: tested 0.06-32 μg/ml
Procedure: as §3, §4

[4] = system: Staphylococcus epidermidis, ATCC 12228; assay: MIC microdilution assay (NCCLS/CLSI); details: tested 0.06-32 μg/ml
Procedure: as §3, §4

[5] = system: Streptococcus pneumoniae, ATCC 49619; assay: MIC microdilution assay (NCCLS/CLSI); details: tested 0.06-32 μg/ml
Procedure: as §3, §4

[6] = system: Streptococcus pyogenes, ATCC 12344; assay: MIC microdilution assay (NCCLS/CLSI); details: tested 0.06-32 μg/ml
Procedure: as §3, §4

| Substance | zones of inhibition (B. subtilis ATCC 6633) [mm] | zones of inhibition (M. luteus ATCC 9341) [mm] | zones of inhibition (S. carnosus ATCC 51365) [mm] | MIC [1] [µg/mL] | MIC [2] [µg/mL] | MIC [3] [µg/mL] | MIC [4] [µg/mL] | MIC [5] [µg/mL] | MIC [6] [µg/mL] |
| --- | --- | --- | --- | --- | --- | --- | --- | --- | --- |
| Gibbosin: the polypeptide shown as amino acids 1 to 38 of SEQ ID NO:6; Mesobuthus gibbosus defensin (MKTIVLLFVLALVFCTLEMGMVEAGFGCPFNQGRCHRH; listed as Mesobuthus gibbosus) | 8 | 6 | 9 | – | – | – | – | – | – |
| Oystrisin: the polypeptide shown as amino acids 1 to 43 of SEQ ID NO:8; Crassostrea gigas defensin (MKVFVLLTLAVLLMVSADMAFAGFGCPGNQLKCNNHCKSISCR; Crassostrea gigas) | – | – | – | 32 | 16 | 0.5 | 32 | 0.13 | 0.03 |
| Piceasin: the polypeptide shown as amino acids 1 to 40 of SEQ ID NO:2; Picea glauca defensin (MKFTISIIAALAFFAQGIVAAPAPIPEAAAVAAPEAEPKA; listed as Picea glauca) | – | – | – | >32 | >32 | 16 | >32 | 16 | 1 |
| Virgisin-1: the polypeptide shown as amino acids 1 to 40 of SEQ ID NO:4; Crassostrea virginica defensin (MKVFVLLTIAVMLMVSADVALAGFGCPLNRYQCHSHCQSI; listed as Crassostrea virginica) | 6 | 5 | 7 | – | – | – | – | – | – |
| Virgisin-2: the polypeptide shown as amino acids 1 to 42 of SEQ ID NO:10; Crassostrea virginica defensin (MKVFVLLTIAVMLLVSADVATADNGCPRRPRICHNRCIYKGR; listed as Crassostrea virginica) | 5 | 0 | 8 | – | – | – | – | – | – |
